# Assay results: US20170058314A1, “NOVEL METHODOLOGY FOR IDENTIFYING ANTI-PERSISTER ACTIVITY AND ANTIMICROBIAL SUSCEPTIBILITY FOR BORRELIA BURGDORFERI AND OTHER BACTERIA” (priority 2014, published 2017)
# Read-outs that look alike come from different tables or passages of the source.
# How the values were obtained:
# [1] = test system: log phase and stationary phase B. burgdorferi culture; test: Antibiotic exposure assay, SYBR Green I/PI (drugs alone and combinations); conditions: for viability at 10 µg/mL: Borreliella burgdorferi, 168 h
# Experimental: (§1) To qualitatively determine the effect of antibiotics, 10 μL of each compound from the pre-diluted plate or pre-diluted stock was added to stationary phase B. burgdorferi culture in the 96-well plate. The final volume per well was adjusted to 100 μL at a concentration of 10 μg/mL for each antibiotic. Plates were sealed and placed in a 33° C. incubator for 7 days. The SYBR Green I/PI viability assay was used to assess the live and dead cells after antibiotic exposure as described (Feng, Wang, Shi, et al., 2014). Briefly, 10 μL of SYBR Green I (10,000×stock, Invitrogen) was mixed with 30 μL propidium iodide (PI, 20 mM) into 1.0 mL of sterile dH2O. Then, 10 μL of staining mixture was added to each well and mixed thoroughly. The plates were incubated at room temperature in the dark for 15 minutes followed by plate reading at excitation wavelength at 485 nm and the fluorescence intensity at 535 nm (green emission) and 635 nm (red emission) in microplate reader (HTS 7000 plus Bio Assay Reader, PerkinElmer Inc., USA). With least-square fitting analysis, the regression equation and regression curve of the relationship between percentage of live bacteria and green/red fluorescence ratios was obtained. The regression equation was used to calculate the percentage of live cells in each well of the 96-well plate.
# To qualitatively determine the effect of antibiotics, 10 μL of each compound (final concentration 50 μM) from the pre-diluted plate or pre-diluted stock was added to round body form or stationary phase B. burgdorferi culture in the 96-well plate. The final volume per well was adjusted to 100 μL. Plates were sealed and placed in a 33° C. incubator for 7 days. The SYBR Green I/PI viability assay was used to assess the live and dead cells after antibiotic exposure as described (Feng, Wang, Shi, et al., 2014). Briefly, 10 μL of SYBR Green I (10,000×stock, Invitrogen) was mixed with 30 μL propidium iodide (PI, 20 mM, Sigma-Aldrich) into 1.0 mL of sterile dH2O. Then, 10 μL staining mixture was added to each well and mixed thoroughly. The plates were incubated at room temperature in the dark for 15 minutes followed by plate reading at excitation wavelength at 485 nm and the fluorescence intensity at 535 nm (green emission) and 635 nm (red emission) in microplate reader (HTS 7000 plus Bio Assay Reader, PerkinElmer Inc., USA). With least-square fitting analysis, the regression equation and regression curve of the relationship between percentage of live and dead bacteria as shown in green/red fluorescence ratios was obtained. The regression equation was used to calculate the percentage of live cells in each well of the 96-well plate.
# Round body form and ten day old stationary phase (in brackets) B. burgdorferi culture was treated with 10 μg/mL drugs or their combinations for 7 days. Residual viable B. burgdorferi was calculated according to the regression equation and ratio of Green/Red fluorescence obtained by SYBR Green I/PI assay as described (Feng, Wang, Shi, et al., 2014). Direct microscopy counting was employed to rectify the results of the SYBR Green I/PI assay. […] Abbreviation: Dox, doxcycline; CefP, cefoperazone; DAP, daptomycin; CefM, cefmetazole; Scp, sulfachlorpyridazine; Art, artemisinin; Nft, nitrofurantoin.
# [2] = test system: stationary phase B. burgdorferi persisters (strain B31); test: SYBR Green I/PI viability assay (plate reader), FDA-approved drug library screen; conditions: for Ratio of Green/Red fluorescence, Primary screening / Ratio of Green/Red fluorescence, Rescreening (first column) / Ratio of Green/Red fluorescence, Rescreening (second column): 50 μM, 7 days, stationary phase; for viability at 50 µM: Borreliella burgdorferi, 168 h, read-out: Residual viable cells (regression equation, SYBR Green I/PI assay)
# [3] = test system: stationary phase B. burgdorferi persisters (strain B31); test: epifluorescence microscope counting after SYBR Green I/PI staining, FDA drug screen; conditions: Borreliella burgdorferi, 168 h, read-out: Residual viable cells (epifluorescence microscope counting)
# [4] = test system: round body form of B. burgdorferi; test: SYBR Green I/PI assay on amoxicillin-induced round body form; conditions: for viability at 50 µM: Borreliella burgdorferi, 168 h, read-out: Residual viable cells (SYBR Green I/PI assay)
# [5] = test system: B. burgdorferi (growing, strain B31); test: MIC determination, standard microdilution method; format: cell-based, Borrelia burgdorferi; conditions: for sensitivity of log phase / multiplying B. burgdorferi (words, FIG. 12): MIC test
# [6] = test system: B. burgdorferi log and stationary phase cultures; test: epi-fluorescence microscope counting after antibiotic exposure (persister frequency, planktonic forms); format: cell-based, Borrelia burgdorferi; conditions: 10-day-old stationary phase culture, 10 μg/mL, 7 days, FIG. 17A
# Experimental: Specimens were examined on a Nikon Eclipse E800 microscope equipped with differential interference contrast (DIC) and epi-fluorescence illumination, and recorded with a Spot slider color camera. Cell proliferation assays were performed by direct counting using a bacterial counting chamber (Hausser Scientific Partnership) and DIC microscopy. SYBR Green I/PI assay was performed to assess the viability of B. burgdorferi. The ratio of live (green) and dead (red) B. burgdorferi was calculated by counting these cells using a bacterial counting chamber and epi-fluorescence microscopy. The three representative images of every sample were captured for quantitative analysis. Image Pro-Plus software was applied for measuring the biomass (fluorescence intensity) of different forms (spirochetes, round body, and microcolony) of B. burgdorferi as previously described (Shopov and Williams, 2000).
# as §1
# Therefore, the frequency of B. burgdorferi persisters in log phase and stationary phase cultures was assessed using the SYBR Green I/PI viability assay after exposure of the cultures to antimicrobials. E. coli culture was used as a control after exposure to antibiotics to validate the SYBR Green I/PI viability assay for persister frequency assessment.
# [7] = test system: stationary phase B. burgdorferi; test: Subculture test of drug-treated stationary phase B. burgdorferi; format: cell-based, Borrelia burgdorferi
# Experimental: Seven-day-old B. burgdorferi culture (1×10^7 spirochetes/mL) (500 μL) was treated with drugs or drug combinations in Eppendorf tubes. After incubation at 33° C. for 7 days without shaking, the cells were collected by centrifugation and rinsed with 1 mL fresh BSK-H medium followed by resuspension in 500 μL fresh BSK-H medium without antibiotics. Then 50 μL of cell suspension was transferred to 1 mL fresh BSK-H medium for subculture at 33° C. for 2 weeks. Cell proliferation was assessed using SYBR Green I/PI assay and bacterial counting chamber (Hausser Scientific Partnership) by microscopy as described above.
# [8] = test system: round body form of B. burgdorferi; test: Subculture test of drug-treated round body form
# Experimental: For induction of round body form of B. burgdorferi, B. burgdorferi spirochetes (1×10^5 spirochetes/mL) were cultured in BKS-H medium for 6 days without shaking. After the 6-day incubation, amoxicillin at a final concentration of 50 μg/mL was added to the culture for round body form induction. After 72 h induction at 33° C., the round body forms of B. burgdorferi were examined by the microscopy. The round body cells (100 μL) were transferred to 96-well tissue culture microplates for evaluation of the effects of antibiotic treatment.
# [9] = test system: E. coli strains (W3110, UTI89, CFT073, KTE181); test: Rapid SYBR Green/PI antibiotic susceptibility test; format: cell-based, Escherichia coli; conditions: for percent killed, sensitive strain W3110: ampicillin 100 μg/mL, others 25 μg/mL; for percent killed, resistant strain KTE181: ampicillin 100, trimethoprim 25, streptomycin 25 μg/mL; for cut-off (averaged proportion of killed cells) for resistant strains / cut-off (averaged proportion of killed cells) for susceptible strains: ampicillin, trimethoprim 5 μg/mL
# [10] = test system: B. burgdorferi (growing, strain B31); conditions: actively growing B. burgdorferi; Feng, Wang, Shi, et al., 2014; cited from earlier work
# [11] = read-out: Live Cell % (residual viable B. burgdorferi), ten-day-old stationary phase culture enriched with micro-colonies, 10 μg/mL each drug, 7 days
# [12] = read-out: Live Cell % (residual viable B. burgdorferi)
# [13] = 10 μg/mL drugs or combinations, 7 days
# [14] = 10 μg/mL, 7 days treatment, then subculture
smiles,measurement,setting,value
CC[C@H]1OC(=O)[C@H](C)[C@@H](O[C@H]2C[C@@](C)(OC)[C@@H](O)[C@H](C)O2)[C@H](C)[C@@H](O[C@@H]2O[C@H](C)C[C@H](N(C)C)[C@H]2O)[C@](C)(OC)C[C@@H](C)C(=O)[C@H](C)[C@@H](O)[C@]1(C)O [Clarithromycin],viability at 10 µg/mL,[1]; [11],63%
same,"Ratio of Green/Red fluorescence, Primary screening",[2],7.70
same,"Ratio of Green/Red fluorescence, Rescreening (first column)",[2],7.36
same,"Ratio of Green/Red fluorescence, Rescreening (second column)",[2],7.59
same,viability at 50 µM,[2],65%
same,viability at 50 µM,[3],70%
CN[C@H](CC(C)C)C(=O)N[C@H]1C(=O)N[C@@H](CC(N)=O)C(=O)N[C@H]2C(=O)N[C@H]3C(=O)N[C@H](C(=O)N[C@H](C(=O)O)c4cc(O)cc(O)c4-c4cc3ccc4O)[C@H](O)c3ccc(c(Cl)c3)Oc3cc2cc(c3O[C@@H]2O[C@H](CO)[C@@H](O)[C@H](O)[C@H]2O[C@H]2C[C@](C)(N)[C@H](O)[C@H](C)O2)Oc2ccc(cc2Cl)[C@H]1O [Vancomycin],viability at 10 µg/mL,[1]; [12],64%
same,viability at 50 µM,[4],38%
same,"Ratio of Green/Red fluorescence, Primary screening",[2],6.65
same,"Ratio of Green/Red fluorescence, Rescreening (first column)",[2],6.58
same,"Ratio of Green/Red fluorescence, Rescreening (second column)",[2],6.37
same,viability at 50 µM,[2],38%
same,viability at 50 µM,[3],48%
CCN1CCN(C(=O)N[C@@H](C(=O)N[C@@H]2C(=O)N3C(C(=O)O)=C(CSc4nnnn4C)CS[C@H]23)c2ccc(O)cc2)C(=O)C1=O [Cefoperazone],"sensitivity of log phase / multiplying B. burgdorferi (words, FIG. 12)",[5],very sensitive
same,"Live cell %, ten day old stationary phase culture (in brackets)",[1]; [13],64%
same,viability at 10 µg/mL,[1]; [11],64%
same,planktonic form cells remaining green (live),[6],52%
same,G/R ratio immediately after treatment,"[7]; 10 μg/mL, 7 days",6.60
same,G/R ratio after 7 day subculture,[7]; [14],6.13
same,G/R ratio after 15 day subculture,[7]; [14],6.95
same,Spirochetes after 7 day subculture (microscope counting),[7]; [14],1.5 × 10^6
same,Spirochetes after 15 day subculture (microscope counting),[7]; [14],5 × 10^6
same,viability at 10 µg/mL,"[7]; Borreliella burgdorferi, 168 h, read-out: Residual viable cells (epifluorescence microscope counting)",61%
same,Spirochetes number After 10 day subculture,[8]; [14],9 × 10^5
same,Spirochetes number After 20 day subculture,[8]; [14],4 × 10^6
same,viability at 10 µg/mL,"[8]; Borreliella burgdorferi, 168 h, read-out: Residual viable cells",33%
same,"Live cell %, round body form",[4]; [13],30%
same,"Ratio of Green/Red fluorescence, Primary screening",[2],6.54
same,"Ratio of Green/Red fluorescence, Rescreening (first column)",[2],6.32
same,"Ratio of Green/Red fluorescence, Rescreening (second column)",[2],6.23
same,viability at 50 µM,[2],34%
same,viability at 50 µM,[3],37%
COc1cc(Cc2cnc(N)nc2N)cc(OC)c1OC [trimethoprim],"percent killed, sensitive strain W3110",[9]; 30 minutes,47%
same,"percent killed, resistant strain KTE181",[9]; 30 minutes,1%
same,"percent killed, resistant strain CFT073","[9]; 30 minutes, trimethoprim 25 μg/mL",22%
same,cut-off (averaged proportion of killed cells) for resistant strains,[9]; streptomycin 100 μg/mL,-0.2
same,cut-off (averaged proportion of killed cells) for susceptible strains,[9]; streptomycin 100 μg/mL,−0.5
[H]/N=C(/N)N[C@H]1[C@H](O)[C@@H](O)[C@H](O[C@@H]2O[C@@H](C)[C@](O)(C=O)[C@H]2O[C@@H]2O[C@@H](CO)[C@H](O)[C@@H](O)[C@@H]2NC)[C@@H](N/C(N)=N\[H])[C@@H]1O [Streptomycin],"percent killed, sensitive strain W3110",[9]; 30 minutes,29%
same,"percent killed, resistant strain KTE181",[9]; 30 minutes,0%
same,cut-off (averaged proportion of killed cells) for resistant strains,[9]; streptomycin 100 μg/mL,−0.1
same,cut-off (averaged proportion of killed cells) for susceptible strains,[9]; streptomycin 100 μg/mL,−0.6
same,cut-off (averaged proportion of killed cells) for intermediate resistance,[9]; streptomycin 100 μg/mL,−0.5
same,"Ratio of Green/Red fluorescence, Primary screening",[2],6.72
same,"Ratio of Green/Red fluorescence, Rescreening (first column)",[2],6.93
same,"Ratio of Green/Red fluorescence, Rescreening (second column)",[2],6.76
same,viability at 50 µM,[2],45%
CN(C)c1cc(NC(=O)CNC(C)(C)C)c(O)c2c1C[C@H]1C[C@H]3[C@H](N(C)C)C(O)=C(C(N)=O)C(=O)[C@@]3(O)C(O)=C1C2=O [Tigecycline],viability at 10 µg/mL,[1]; [12],67%
same,"Ratio of Green/Red fluorescence, Primary screening",[2],6.98
same,"Ratio of Green/Red fluorescence, Rescreening (first column)",[2],7.06
same,"Ratio of Green/Red fluorescence, Rescreening (second column)",[2],6.96
same,viability at 50 µM,[2],51%
same,viability at 50 µM,[3],58%
CC(C)/N=c1\cc2n(-c3ccc(Cl)cc3)c3ccccc3nc-2cc1Nc1ccc(Cl)cc1 [Clofazimine],MIC,"[5]; Borreliella burgdorferi, growing B. burgdorferi, read-out: MIC",6.25 µg/mL
same,"sensitivity of log phase / multiplying B. burgdorferi (words, FIG. 12)",[5],less potent
same,viability at 10 µg/mL,[1]; [12],73%
same,MIC (previous study),[10],6.25 µg/mL
same,viability at 50 µM,[4],32%
same,"Ratios of green/red fluorescence, Primary screening","[4]; round body form, 50 μM, 7 days",6.29
same,"Ratios of green/red fluorescence, Rescreening (first column)","[4]; round body form, 50 μM, 7 days",6.22
same,"Ratios of green/red fluorescence, Rescreening (second column)","[4]; round body form, 50 μM, 7 days",6.24
same,"Ratio of Green/Red fluorescence, Primary screening",[2],6.56
same,"Ratio of Green/Red fluorescence, Rescreening (first column)",[2],6.23
same,"Ratio of Green/Red fluorescence, Rescreening (second column)",[2],6.02
same,viability at 50 µM,[2],32%
same,viability at 50 µM,[3],45%
